Data from article PMC6080781, “ATP competes with PIP2 for binding to gelsolin” (PLoS ONE, 2018).

Key:
gelsolin [1] = details: equilibrium dialysis, high NaCl concentrations; read-out: dissociation constant for gelsolin; cited from earlier work
gelsolin [2] = biological target: T1, gelsolin (Homo sapiens, UniProt P06396); assay: Confocal microscopy of Alexa488-labeled gelsolin on PIP2-containing phospholipid vesicles; details: 0.5 mM ATP, absence of divalent cations
T1 construct: His tag (cleaved yes); made in house; host or cells: E. coli Rosetta2 (DE3) pLysS, pSY5 plasmid
Experimental: Phospholipid vesicles were prepared by a modified protocol from James H. Morrissey, Dept. of Biochemistry, University of Illinois at Urbana-Champaign, Urbana, IL 61801, USA (https://tf7.org). A mixture of 1% PIP2 (PtdIns-(4,5)-P2(1,2-dipalmitoyl)) (Cayman Chemicals), 79% PC (L-α-phosphatidylcholine) (Sigma-Aldrich) and 20% PS (3-sn-phosphatidyl-L-serine) (Sigma-Aldrich) was dissolved in 20 μM rhodamine 590 N-succinimidyl ester (Sigma-Aldrich) in chloroform. […]
10% (v/v) rhodamine590-filled phospholipid vesicles and 5 μM Alexa488-labeled gelsolin were incubated together and a drop of the mixture was placed on a clean glass slide, which was then covered by and separated from a second slide by a parafilm gasket. […] Fluorescence emission-based imaging was carried out using a Zeiss LSM 510 META Confocal Microscope. The two different fluorophores were detected in two separate channels; Alexa488 (gelsolin) was excited by 477 nm laser light and emission was detected in the 505–530 nm channel, while rhodamine590 (phospholipid vesicles) was excited by 545 nm laser light and emission was detected in the 585–630 nm channel.

calcium-free gelsolin = biological target: calcium-free gelsolin; parameters: method as in PMID 10336615; details: cited from earlier work
gelsolin [3] = biological target: T1, gelsolin; assay: Steady-state fluorescence anisotropy of PIP2-F binding to gelsolin; details: 5 μM gelsolin
Experimental: His-tagged human wild-type gelsolin was expressed in E. coli strain Rosetta2 (DE3) pLysS cells from a pSY5 plasmid. […] Traces of calcium were removed by dialysis (2 mM Tris-HCl, 1 mM EGTA, pH 7.4, overnight). Rabbit skeletal muscle actin was prepared from acetone powder (Pel-Freez Biologicals) in a protocol modified from Spudich and Watt. Actin was stored in buffer A (2 mM Tris-HCl, 0.2 mM ATP (ATP disodium trihydrate, Sigma-Aldrich), 0.1 mM CaCl2 (pCa 4), 0.1 mM DTT and 0.005% NaN3, pH 7.4). Alexa Fluor^TM 488 C5 Maleimide (Life Technologies) was used to label cysteine residues of gelsolin based on the manufacturer’s recommendations (Thermo Fisher Scientific).
We used a fluorescent derivative of PIP2 (PtdIns-(4,5)-P2-fluorescein, Cayman Chemicals, NU-10010388, λex = 493 nm, λem = 520 nm, abbreviated as PIP2-F) and a fluorescent derivative of ATP (N^6-(6-amino)hexyl-ATP-ATTO-532, Jena Bioscience, NU-805-532, λex = 532 nm, λem = 553 nm, abbreviated as ATP-N) as probes for the binding of PIP2 and ATP to gelsolin. Fluorescence intensities were measured on a Safire^2 monochromator microplate reader (TECAN) at 22°C. Steady-state fluorescence anisotropy values were determined according to Eq 1 [65], where IVV and IVH, respectively, are the intensities of vertically and horizontally polarized emission on excitation with vertically polarized light, with the correction factor, G, being the ratio of IVH/IVV.
The dissociation constants for ATP and PIP2 were calculated using a hyperbolic model from anisotropy data that had reached saturation during the gelsolin titrations Eq 2: r=rf+(rb−rf)(Kd+[G]+[L]−(Kd+[G]+[L])^2−4[G][L]/2[L]) (2) where rf is the anisotropy of free ligand, rb is the anisotropy of gelsolin-bound ligand, [L] is the total concentration of ligand, Kd is the dissociation constant and [G] is the total concentration of gelsolin. The anisotropy of 0.5 μM ATP-N was measured in the presence of gelsolin concentrations: 0, 0.2, 1.5, 2, 3, 5 and 8 μM. […] The calcium and magnesium sensitivities of ATP binding to gelsolin were characterized by the change in anisotropy of solutions containing 0.5 μM ATP-N in the presence of 5 μM of gelsolin over a range of divalent cation concentrations of pCa 2–12 or pMg 1–12, where pCa and pMg refer to[…]. […] Anisotropy of 0.5 μM or 0.25 μM solutions of PIP2-F in the presence of 5 μM gelsolin was used to probe the changes in binding of the complexes under different calcium, magnesium, salt and ATP conditions.

gelsolin [4] = biological target: T1, gelsolin; assay: Labeled/unlabeled ATP competition on gelsolin (ATP-N anisotropy); format: binding; details: absence of calcium
Experimental: The dissociation constants for ATP and PIP2 were calculated using a hyperbolic model from anisotropy data that had reached saturation during the gelsolin titrations Eq 2: r=rf+(rb−rf)(Kd+[G]+[L]−(Kd+[G]+[L])^2−4[G][L]/2[L]) (2) where rf is the anisotropy of free ligand, rb is the anisotropy of gelsolin-bound ligand, [L] is the total concentration of ligand, Kd is the dissociation constant and [G] is the total concentration of gelsolin. The anisotropy of 0.5 μM ATP-N was measured in the presence of gelsolin concentrations: 0, 0.2, 1.5, 2, 3, 5 and 8 μM. Saturation was evident at 5 μM characterized by an anisotropy value of 0.15 ± 0.006. […]
Supplementary file pone.0201826.s002.pdf: S2 Fig ATP binding to gelsolin under actin polymerization conditions. (A) The calcium-dependent gelsolin binding affinity for ATP under actin polymerization conditions was determined by monitoring the change in ATP-N anisotropy on gelsolin titration at different calcium ion concentrations. Each data point arises from the Kd calculated from a titration similar to Fig 1A. […] (B) The anisotropy of ATP-N (0.5 μM) bound to gelsolin (5 μM) was measured upon titrating with unlabeled ATP in the absence of calcium. […]

[5] = Critical micelle concentration by dynamic light scattering; format: physicochemical
Experimental: tested, PIP2-F was free from micelle formation at concentrations of 0.5 µM or below, whereas […]
Methods: The critical micelle concentrations of PIP2 and 1-(1-octadecanoyl-fluorescein-2R-octadecanoylphosphatidyl)inositol-4,5-bisphosphate (Cayman Chemical, abbreviated as PIP2-F) were determined by dynamic light scattering (Huang et al., 2011). Fifty microliter samples were prepared by serial dilution of PIP2 or PIP2-F into a low salt buffer (2 mM Tris-HCl, pH 7.4), or the same buffer supplemented with 100 mM KCl, 1 mM MgCl2, and/or 1 mM CaCl2. After incubation for 30 min, the samples were centrifuged at 15,000 x g for 10 min, transferred into a 384-well clear bottom plate, and light scattering was measured using a Wyatt Dynapro plate reader at room temperature. The concentrations of PIP2-F were subsequently determined by light absorbance at 494 nm with a Nanodrop spectrophotometer. […]
Huang, W., Jiang, D., Wang, X., Wang, K., Sims, C. E., Allbritton, N. L. and Zhang, Q.

[6] = Calcium-dependent fluorescence emission of FURA-2FF; format: binding; details: inferred from unchanged FURA-2FF profile with 20 μM PIP2
Experimental: Supplementary file pone.0201826.s005.pdf: S5 Fig Assessment of the effects of calcium and ATP on the binding of ATP-N and PIP2-F to gelsolin. (A) Kds were calculated from the fit data with Eq 2 of gelsolin:PIP2-F binding under different calcium concentrations in the absence or presence of ATP. In the absence of ATP, PIP2-F (0.5 μM) binds to gelsolin, as reflected by thehigh affinity, across a wide range of calcium concentrations. […] (B) In the absence of gelsolin, calcium directly precipitates ATP-N (C, open triangles) with a half-maximum value of 70.4 ± 0.7 μM. Magnesium has no effect on the fluorescence emission of ATP-N either in the absence (M, orange circles) or presence of 10 μM calcium (MC, purple squares). Data were fitted with simple sigmoidal curves. (C) The reported FURA-2FF dissociation constant for calcium ions is 25 μM (A.G. Scientific Inc.). The calcium-dependent fluorescence emission profile of FURA-2FF (2 μM) over pCa range of 5–7 was similar in the presence and absence of 20 μM PIP2, which were fitted with simple sigmoidal curves. […] The measurement was carried out with a Perkin Elmer LS-55 spectrofluorimeter (λex = 340 nm, λem = 505 nm). (PDF) Click here for additional data file.

T1 sequence (P06396 28-782): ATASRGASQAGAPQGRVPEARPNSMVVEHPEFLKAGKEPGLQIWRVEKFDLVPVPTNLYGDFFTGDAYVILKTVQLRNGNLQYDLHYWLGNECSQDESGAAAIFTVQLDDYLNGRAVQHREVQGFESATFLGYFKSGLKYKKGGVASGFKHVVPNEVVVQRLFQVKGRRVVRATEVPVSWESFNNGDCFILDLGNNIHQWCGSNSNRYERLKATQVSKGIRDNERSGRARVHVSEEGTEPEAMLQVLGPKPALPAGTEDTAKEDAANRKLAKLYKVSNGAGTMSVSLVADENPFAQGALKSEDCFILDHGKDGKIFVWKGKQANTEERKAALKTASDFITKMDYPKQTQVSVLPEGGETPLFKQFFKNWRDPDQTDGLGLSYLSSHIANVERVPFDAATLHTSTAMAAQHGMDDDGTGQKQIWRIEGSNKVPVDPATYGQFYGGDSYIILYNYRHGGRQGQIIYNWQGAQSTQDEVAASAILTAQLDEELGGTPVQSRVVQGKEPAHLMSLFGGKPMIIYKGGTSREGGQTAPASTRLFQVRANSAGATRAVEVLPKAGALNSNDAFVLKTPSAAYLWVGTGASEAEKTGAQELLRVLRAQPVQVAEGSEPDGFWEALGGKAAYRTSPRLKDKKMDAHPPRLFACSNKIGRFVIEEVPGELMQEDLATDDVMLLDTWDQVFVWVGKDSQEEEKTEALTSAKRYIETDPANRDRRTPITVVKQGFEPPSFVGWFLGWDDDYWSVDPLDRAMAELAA

ATP concentration sufficient to remove the gelsolin bound ATP-N (gelsolin [4]; 0.5 μM ATP-N, 5 μM gelsolin) [µM]	Kd (gelsolin [4]; 50 mM KCl, 1 mM MgCl2 (actin polymerizing salt), competition with ATP-N) [nM]	CMC of PIP2 ([5]; 100 mM KCl and 1 mM MgCl2, nominal concentrations) [µM]	CMC of PIP2 ([5]; 100 mM KCl, nominal concentrations) [µM]	CMC of PIP2 ([5]; absence of cations, nominal concentrations) [µM]	CMC of PIP2 ([5]; calcium in the buffer, considered an overestimation)	Kd [6] [nM]	Molecule	Kd (gelsolin [1]) [nM]	release of gelsolin-Alexa488 from PIP2-containing vesicles (gelsolin [2])	Kd (calcium-free gelsolin; Gremm and Wegner, read-out: Kd of calcium-free gelsolin for ATP) [nM]	ATP binding to gelsolin (calcium-free gelsolin; solutions with more than 10 μM Ca2+ (pCa 5))	effect of ATP on PIP2-F anisotropy (gelsolin [3]; 0.5 mM ATP, 0.25 μM PIP2-F, 100 mM K+, 1 mM Mg2+, entire calcium range, absence and presence of 50 μM actin)	effect of ATP on the gelsolin/PIP2-F complex (gelsolin [3]; 0.2 or 0.5 mM ATP, 0.5 μM PIP2-F)
50	2200	–	–	–	–	–	Nc1ncnc2c1ncn2[C@@H]1O[C@H](COP(=O)(O)OP(=O)(O)OP(=O)([O-])[O-])[C@@H](O)[C@H]1O.O.O.O.[Na+].[Na+] [ATP, ATP disodium trihydrate]	280	the majority of gelsolin-Alexa488 was released from the vesicles	32000	No ATP binding to gelsolin is detectable	almost complete loss of PIP2-F anisotropy	complete dissociation of the gelsolin/PIP2-F complex
–	–	< 1	2	20	~ 10 μM	≥ 25000	phosphatidylinositol 4,5-bisphosphate [PIP2]	–	–	–	–	–	–
